Patent US11130756B2, “[1,2,4]Triazolo[4,3-A]pyridinyl substituted indole compounds” (BRISTOL-MYERS SQUIBB COMPANY, priority 2017, dated 2021)
pIC50: −log10 of the molar value.

Columns and labels:
Assay type in all cases: cell-based
human TLR8 = molecular target: T1, human TLR8 (Homo sapiens, UniProt Q9NR97); assay: TLR8 inhibition reporter assay (HEK-Blue, SEAP); settings: HEK-Blue cells overexpressing human TLR8, R848 15.9 μM, 22 hour incubation
T1 construct: host or cells: HEK-Blue cells
T1 sequence (Q9NR97 27-1041): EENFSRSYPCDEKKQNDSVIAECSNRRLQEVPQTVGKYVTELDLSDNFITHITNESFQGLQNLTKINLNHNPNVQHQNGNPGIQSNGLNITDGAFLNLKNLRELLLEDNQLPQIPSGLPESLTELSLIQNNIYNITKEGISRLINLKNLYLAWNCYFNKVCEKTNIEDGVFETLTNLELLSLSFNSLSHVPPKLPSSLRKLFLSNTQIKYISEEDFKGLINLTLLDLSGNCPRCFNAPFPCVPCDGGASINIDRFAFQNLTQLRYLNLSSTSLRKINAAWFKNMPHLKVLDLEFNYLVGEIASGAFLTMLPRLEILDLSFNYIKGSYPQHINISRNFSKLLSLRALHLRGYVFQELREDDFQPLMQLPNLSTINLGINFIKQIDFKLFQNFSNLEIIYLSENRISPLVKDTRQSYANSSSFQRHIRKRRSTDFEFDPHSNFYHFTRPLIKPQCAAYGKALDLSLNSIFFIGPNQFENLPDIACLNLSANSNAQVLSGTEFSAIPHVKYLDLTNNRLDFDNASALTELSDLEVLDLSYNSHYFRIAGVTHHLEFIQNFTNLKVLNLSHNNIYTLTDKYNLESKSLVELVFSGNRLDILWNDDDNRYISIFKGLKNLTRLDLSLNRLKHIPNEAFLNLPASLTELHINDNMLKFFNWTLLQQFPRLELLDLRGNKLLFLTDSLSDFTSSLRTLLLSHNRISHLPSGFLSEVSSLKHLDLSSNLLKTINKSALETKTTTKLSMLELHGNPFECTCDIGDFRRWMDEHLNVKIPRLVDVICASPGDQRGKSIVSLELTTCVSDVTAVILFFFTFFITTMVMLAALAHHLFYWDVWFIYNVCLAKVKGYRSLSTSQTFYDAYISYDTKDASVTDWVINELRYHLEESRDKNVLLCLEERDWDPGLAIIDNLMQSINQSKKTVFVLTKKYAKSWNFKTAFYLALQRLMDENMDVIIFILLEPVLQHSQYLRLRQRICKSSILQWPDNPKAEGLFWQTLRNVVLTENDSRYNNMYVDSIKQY
In short: (§1)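 Compound treatment: 30 min, RT, 0.05 nM–50 μM final. Agonist: TLR7 gardiquimod 7.5 μM; TLR8 R848 15.9 μM; TLR9 ODN2006 5 nM. Incubation 22 h, 37 °C, 5% CO2. Readout SEAP, HEK-Blue Detection.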

human TLR7 = molecular target: T2, human TLR7 (Homo sapiens, UniProt Q9NYK1); assay: TLR7 inhibition reporter assay (HEK-Blue, SEAP); settings: HEK-Blue cells overexpressing human TLR7, gardiquimod 7.5 μM, 22 hour incubation
T2 construct: host or cells: HEK-Blue cells
T2 sequence (Q9NYK1 27-1049): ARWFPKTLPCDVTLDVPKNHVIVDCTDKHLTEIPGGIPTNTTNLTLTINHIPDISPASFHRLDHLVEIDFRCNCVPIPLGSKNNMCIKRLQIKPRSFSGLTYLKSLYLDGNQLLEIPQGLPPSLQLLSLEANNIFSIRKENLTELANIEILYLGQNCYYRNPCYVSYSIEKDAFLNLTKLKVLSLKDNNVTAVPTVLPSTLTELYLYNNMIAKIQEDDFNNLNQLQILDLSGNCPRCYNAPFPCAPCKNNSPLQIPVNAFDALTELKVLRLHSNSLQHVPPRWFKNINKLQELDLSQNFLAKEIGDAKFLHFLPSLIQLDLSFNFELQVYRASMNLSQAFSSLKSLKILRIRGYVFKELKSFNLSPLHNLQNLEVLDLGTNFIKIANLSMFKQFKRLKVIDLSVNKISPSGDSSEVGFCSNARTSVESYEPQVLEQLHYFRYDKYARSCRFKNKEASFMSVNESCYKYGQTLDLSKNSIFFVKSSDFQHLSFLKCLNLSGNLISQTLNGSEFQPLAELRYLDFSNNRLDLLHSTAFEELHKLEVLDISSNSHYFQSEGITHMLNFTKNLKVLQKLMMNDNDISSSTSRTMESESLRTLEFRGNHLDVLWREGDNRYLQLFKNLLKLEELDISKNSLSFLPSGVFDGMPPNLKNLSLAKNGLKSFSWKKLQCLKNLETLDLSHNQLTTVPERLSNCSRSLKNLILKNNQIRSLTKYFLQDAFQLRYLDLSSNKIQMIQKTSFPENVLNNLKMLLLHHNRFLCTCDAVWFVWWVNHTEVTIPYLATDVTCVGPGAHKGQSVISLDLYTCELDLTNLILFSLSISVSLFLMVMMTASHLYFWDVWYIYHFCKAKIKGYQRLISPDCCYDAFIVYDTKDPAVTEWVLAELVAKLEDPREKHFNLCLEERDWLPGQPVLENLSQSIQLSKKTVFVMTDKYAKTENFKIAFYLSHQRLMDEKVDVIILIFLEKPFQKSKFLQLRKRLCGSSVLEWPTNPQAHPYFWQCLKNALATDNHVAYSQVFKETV
In short: as §1

human TLR9 = molecular target: T3, human TLR9 (Homo sapiens, UniProt Q9NR96); assay: TLR9 inhibition reporter assay (HEK-Blue, SEAP); settings: HEK-Blue cells overexpressing human TLR9, ODN2006 5 nM, 22 hour incubation
T3 construct: host or cells: HEK-Blue cells
T3 sequence (Q9NR96 26-1032): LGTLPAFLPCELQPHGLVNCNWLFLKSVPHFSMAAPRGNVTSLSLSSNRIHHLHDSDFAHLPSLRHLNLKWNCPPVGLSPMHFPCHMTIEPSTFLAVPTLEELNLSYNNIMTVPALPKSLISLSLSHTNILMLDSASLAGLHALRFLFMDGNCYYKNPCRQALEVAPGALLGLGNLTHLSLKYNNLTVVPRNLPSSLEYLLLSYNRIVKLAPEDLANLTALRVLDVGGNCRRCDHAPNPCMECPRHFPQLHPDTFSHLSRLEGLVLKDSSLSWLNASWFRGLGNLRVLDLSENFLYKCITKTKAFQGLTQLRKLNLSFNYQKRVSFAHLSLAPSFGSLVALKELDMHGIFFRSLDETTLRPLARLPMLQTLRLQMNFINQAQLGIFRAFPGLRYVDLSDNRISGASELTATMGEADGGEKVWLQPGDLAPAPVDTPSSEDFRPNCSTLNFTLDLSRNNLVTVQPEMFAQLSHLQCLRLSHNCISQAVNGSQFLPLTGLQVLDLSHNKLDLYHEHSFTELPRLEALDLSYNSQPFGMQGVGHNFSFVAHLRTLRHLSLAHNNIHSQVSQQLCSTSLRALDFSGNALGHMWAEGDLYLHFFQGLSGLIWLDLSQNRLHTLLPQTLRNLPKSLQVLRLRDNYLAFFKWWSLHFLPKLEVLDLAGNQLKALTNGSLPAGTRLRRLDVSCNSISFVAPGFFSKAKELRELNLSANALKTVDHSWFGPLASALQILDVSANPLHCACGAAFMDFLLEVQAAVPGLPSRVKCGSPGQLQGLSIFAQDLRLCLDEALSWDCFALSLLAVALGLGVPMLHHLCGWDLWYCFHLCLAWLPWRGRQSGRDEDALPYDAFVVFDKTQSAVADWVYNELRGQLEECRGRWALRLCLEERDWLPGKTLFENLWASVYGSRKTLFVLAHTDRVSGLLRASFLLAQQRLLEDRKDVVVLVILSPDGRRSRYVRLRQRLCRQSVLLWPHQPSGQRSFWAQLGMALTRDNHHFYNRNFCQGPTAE
In short: as §1

pIC50 (human TLR8)	pIC50 (human TLR7)	pIC50 (human TLR9)	Compound
7.55	6.93	4.91	Cc1c(-c2[nH]c3ccc(C4CCN(Cc5ncn(C)n5)CC4)cc3c2C(C)C)ccc2nncn12 [Example 26, 6-(3-isopropyl-5-(1-((1-methyl-1H-1,2,4-triazol-3-yl)methyl)piperidin-4-yl)-1H-indol-2-yl)-5-methyl-[1,2,4]triazolo[4,3-a]pyridine]
8.96	9.15	5.36	Cc1cc(-c2[nH]c3ccc(C4CCN(CC5(C)COC5)CC4)cc3c2C(C)C)cn2cnnc12 [Example 29, 6-(3-isopropyl-5-(1-((3-methyloxetan-3-yl)methyl)piperidin-4-yl)-1H-indol-2-yl)-8-methyl-[1,2,4]triazolo[4,3-a]pyridine]
8.68	7.95	5.43	Cc1cc(-c2[nH]c3ccc(C4CCN(CCS(C)(=O)=O)CC4)cc3c2C(C)C)cn2c(C)nnc12 [Example 32, 6-(3-isopropyl-5-(1-(2-(methylsulfonyl)ethyl)piperidin-4-yl)-1H-indol-2-yl)-3,8-dimethyl-[1,2,4]triazolo[4,3-a]pyridine]
8.10	7.53	5.29	Cc1cc(-c2[nH]c3ccc(C4CCN(Cc5ncn(C)n5)CC4)cc3c2C(C)C)cn2c(C)nnc12 [Example 33, 6-(3-isopropyl-5-(1-((1-methyl-1H-1,2,4-triazol-3-yl)methyl)piperidin-4-yl)-1H-indol-2-yl)-3,8-dimethyl-[1,2,4]triazolo[4,3-a]pyridine]
8.19	9.52	5.82	Cc1cc(-c2[nH]c3ccc(C4CCN(CC#N)CC4)cc3c2C(C)C)cn2cnnc12 [Example 37, 2-(4-(3-isopropyl-2-(8-methyl-[1,2,4]triazolo[4,3-a]pyridin-6-yl)-1H-indol-5-yl)piperidin-1-yl)acetonitrile]

Continued, compound first:

Compound	pIC50 (human TLR8)	pIC50 (human TLR7)	pIC50 (human TLR9)
Cc1c(-c2[nH]c3ccc(C4CCN(CC(=O)N(C)C)CC4)cc3c2C(C)C)ccc2nncn12 [Example 25, 2-(4-(3-isopropyl-2-(5-methyl-[1,2,4]triazolo[4,3-a]pyridin-6-yl)-1H-indol-5-yl)piperidin-1-yl)-N,N-dimethylacetamide]	7.55	7.31	5.48
COCCN1CCC(c2ccc3[nH]c(-c4cc(C)c5nncn5c4)c(C(C)C)c3c2)CC1 [Example 27, 6-(3-isopropyl-5-(1-(2-methoxyethyl)piperidin-4-yl)-1H-indol-2-yl)-8-methyl-[1,2,4]triazolo[4,3-a]pyridine]	8.47	9.05	5.46
Cc1cc(-c2[nH]c3ccc(C4CCN(CCO)CC4)cc3c2C(C)C)cn2cnnc12 [Example 28, 2-(4-(3-isopropyl-2-(8-methyl-[1,2,4]triazolo[4,3-a]pyridin-6-yl)-1H-indol-5-yl)piperidin-1-yl) ethan-1-ol]	8.47	9.40	6.34
Cc1cc(-c2[nH]c3ccc(C4CCN(CC5COC5)CC4)cc3c2C(C)C)cn2cnnc12 [Example 30, 6-(3-isopropyl-5-(1-(oxetan-3-ylmethyl)piperidin-4-yl)-1H-indol-2-yl)-8-methyl-[1,2,4]triazolo[4,3-a]pyridine]	8.89	9.52	5.51
Cc1cc(-c2[nH]c3ccc(C4CCN(CC#N)CC4)cc3c2C(C)C)cn2c(C)nnc12 [Example 31, 2-(4-(2-(3,8-dimethyl-[1,2,4]triazolo[4,3-a]pyridin-6-yl)-3-isopropyl-1H-indol-5-yl)piperidin-1-yl)acetonitrile]	7.89	8.42	6.14
Cc1cc(-c2[nH]c3ccc(C4CCN(CC(=O)N(C)C)CC4)cc3c2C(C)C)cn2c(C)nnc12 [Example 34, 2-(4-(2-(3,8-dimethyl-[1,2,4]triazolo[4,3-a]pyridin-6-yl)-3-isopropyl-1H-indol-5-yl)piperidin-1-yl)-N,N-dimethylacetamide]	8.34	8.04	5.84
Cc1cc(-c2[nH]c3ccc(C4CCN(CCS(C)(=O)=O)CC4)cc3c2C(C)C)cn2cnnc12 [Example 35, 6-(3-isopropyl-5-(1-(2-(methylsulfonyl)ethyl)piperidin-4-yl)-1H-indol-2-yl)-8-methyl-[1,2,4] triazolo[4,3-a]pyridine]	8.52	9.15	5.23
Cc1cc(-c2[nH]c3ccc(C4CCN(CCCC(F)(F)F)CC4)cc3c2C(C)C)cn2cnnc12 [Example 36, 6-(3-isopropyl-5-(1-(4,4,4-trifluorobutyl)piperidin-4-yl)-1H-indol-2-yl)-8-methyl-[1,2,4]triazolo[4,3-a]pyridine]	8.35	8.92	6.04
COCc1nnc2ccc(-c3[nH]c4ccc(C5CCN(CC(=O)N(C)C)CC5)cc4c3C(C)C)cn12 [Example 38, 2-(4-(3-isopropyl-2-(3-(methoxymethyl)-[1,2,4]triazolo[4,3-a]pyridin-6-yl)-1H-indol-5-yl)piperidin-1-yl)-N,N-dimethylacetamide]	6.40	6.55	5.51
